Here are results for one substance from patent US20060166271A1, “Non-radioactive schilling test” (priority 2003, published 2006).

Where “and” joins values, the source holds several entries; their conditions need not be identical. Equal entries are not always repeated.

A short description of data set [1]: Vitamin B12 absorption from serum holo-TC and TC saturation before and after oral vitamin B12, patients with suspected malabsorption. Format: in vivo, human. The settings on record: individual patients with Crohn's disease, day 1-day 0, oral 3 times 9 μg. From the text: The subjects participating in the study were 31 healthy subjects recruited in October 2002. None of them suffered from known disorders related to vitamin B12 deficiency. Persons with chronic systemic disease, persons taking any kind of medical treatment, including vitamin tablets within the past week and persons not being able to give written informed consent were excluded. The age of the healthy subjects ranged from to 25 to 57 (mean 40) years. There were 9 men and 22 women. We further included seven patients (age 22-39 years, five men and two women) who had been referred to the out-patient clinic of internal medicine department during 2003 because vitamin B12 malabsorption was suspected. Three of the seven patients have previously been diagnosed as Crohn's disease. […]
The absorption of vitamin B12 was evaluated from analysis of serum vitamin B12, total TC, and holo-TC on samples obtained before and after oral administration of vitamin B12. […]
Serum vitamin B12 was determined by a commercial method (Bayer corporation, NY) on a Centaur equipment (analytical imprecision<10%). Serum total TC and holo-TC were measured by ELISA as recently described (Nexø et al., 2000; 2002), but modified to allow the use of an automated ELISA analyser (BEP-2000, Dade Behring, Germany). […] Haematological parameters were analysed on the Coulter Counter (Beckman Coulter CA). […]

Data set [2] is described as follows: Schilling test I (urinary excretion of radioactive vitamin B12 over 24 hours). The class given is in vivo, human. Particulars: individual patients with Crohn's disease; 1 μg oral Co-57 tagged vitamin B12, 24 hour urine; normal 10-40%. The procedure:
(§1) In healthy subjects samples were taken at 8:00 a.m. on the day before vitamin B12 intake (−1) and on day 0, 1, 2, and 6. After the blood sample was removed on day 0, an oral dose of 9 μg vitamin B12 (Natur Drogeriet A/S, Hoerning, Denmark) was given three times, with 6 h between the doses (8 a.m., 2 p.m., and 8 p.m. (time points were allowed to deviate ±45 min). One healthy subject was unavailable for delivering a blood sample on day 6. The absorption of vitamin B12 in seven patients was evaluated by the Schilling test I and by the design mentioned above except that the blood samples were obtained only on day 0 and day 1. The Schilling test I was performed after our alternative approach.
The Schilling test I was performed as described previously (Chanarin, 1979). Briefly, a fasting patient is given a 1 μg oral dose of vitamin B12, which is tagged with radioactive cobalt (Co-57). Two hours after the oral dose the patient is then injected intramuscularly with 1000 μg of non-labeled vitamin B12. A 24 hour urine collection is initiated. The percentage of the administered dose excreted in the urine over 24 hours is then determined. Urinary excretion of 10-40% of the administered dose is considered normal.

The conditions of data set [3]: oral dose; cited from earlier work.
Data set [4] is described as follows: Vitamin B12 absorption from serum vitamin B12, total TC and holo-TC before and after oral vitamin B12, healthy subjects. Format: in vivo, human. The settings on record: for Holo-TC, median: serum.
From the text: The subjects participating in the study were 31 healthy subjects recruited in October 2002. None of them suffered from known disorders related to vitamin B12 deficiency. Persons with chronic systemic disease, persons taking any kind of medical treatment, including vitamin tablets within the past week and persons not being able to give written informed consent were excluded. The age of the healthy subjects ranged from to 25 to 57 (mean 40) years. There were 9 men and 22 women. We further included seven patients (age 22-39 years, five men and two women) who had been referred to the out-patient clinic of internal medicine department during 2003 because vitamin B12 malabsorption was suspected. Three of the seven patients have previously been diagnosed as Crohn's disease. The diagnosis of the remaining four patients was not clear. Written informed consent was obtained from all subjects, and the Research Ethics Committee of Aarhus County approved the study protocol (2002.0224).
The absorption of vitamin B12 was evaluated from analysis of serum vitamin B12, total TC, and holo-TC on samples obtained before and after oral administration of vitamin B12.
as §1
The vitamin B12 tablets were given with either water or orange juice. The subjects were allowed to have a light breakfast 30 to 60 min before blood sampling, not including any diary products, but were otherwise allowed to eat their normal diet. The blood samples were centrifuged within 60 minutes and were stored at −80° C. until further processed.
Serum vitamin B12 was determined by a commercial method (Bayer corporation, NY) on a Centaur equipment (analytical imprecision<10%). Serum total TC and holo-TC were measured by ELISA as recently described (Nexø et al., 2000; 2002), but modified to allow the use of an automated ELISA analyser (BEP-2000, Dade Behring, Germany). The following modification was performed; all incubations were performed at 37° C. The analytical imprecision was 7% for total TC (mean=934 pmol/L, n=91) and 8% for holo-TC (mean=38 pmol/L, n=41). The controls were run over 12 months for total TC and 6 months for holo-TC. The reference interval was established from analysing 161 samples obtained from healthy blood donors (age interval; 21-65). The reference interval was 700-1400 pmol/L for total TC, ≧50 pmol/L for holo-TC and ≧0.05 for TC saturation. Haematological parameters were analysed on the Coulter Counter (Beckman Coulter CA). Plasma creatinine was measured using the Jaffe method and a Roche Cobas integra 700 autoanalyzer (analytical imprecision <3%).
Alterations (increase or decrease) in parameters as a function of time were analysed by comparing the changes obtained on the same individuals relative to baseline (day 0) with the theoretical median “0” assigned for day 0. […] P-values <5% were regarded as statistically significant. Data were analysed using SPSS10.0 (SPSS Inc.) and the GraphPad (Prism2) software.

The mark [5] stands for this setting: DAY 1 after oral 3 times 9 μg vitamin B12, 31 healthy subjects.
[6] abbreviates: DAY 2 after oral 3 times 9 μg vitamin B12, 31 healthy subjects.
The mark [7] stands for this setting: DAY 6 after oral 3 times 9 μg vitamin B12, 31 healthy subjects.
The mark [8] stands for this setting: control subjects after omitting outliers (n=2).
Setting [9] is: one day after oral dose of three times 9 μg, healthy subjects (discussion).
Where [10] appears, read: relative to baseline (day 0), oral 3 times 9 μg, healthy subjects.
[11] abbreviates: relative to baseline (day 0), oral 3 times 9 μg, n=31 healthy subjects.

In the case of cobalamin [vitamin B12], in data set [1], the “Increase in TC saturation after vitamin B12 intake” value is 0.004 and 0.01 (2×); the “Increase in holo-TC after vitamin B12 intake” value was 3 pmol/L and 7 pmol/L and 14 pmol/L. In addition, the “Schilling test I, percentage of vitamin B12 excreted in the urine” value in data set [2] is 2% and 10% and 15%. The “Refractory phase with less absorption after ingestion of a dose” value in data set [3] was “about 3 hours”. Besides, in data set [4] (setting [5]), the “Serum vitamin B12, median” value was found to be 279 pmol/L; the “TC saturation (holo-TC/total-TC), median” value was 0.13 fraction; the “Holo-TC, median” value is on record as 118 pmol/L. Further, in data set [4] (setting [6]), the “Serum vitamin B12, median” value is recorded as 253 pmol/L; the “TC saturation (holo-TC/total-TC), median” value turned out to be 0.11 fraction; the “Holo-TC, median” value came to 87 pmol/L. Moreover, in data set [4] (setting [7]), the “Serum vitamin B12, median” value turned out to be 260 pmol/L; the “TC saturation (holo-TC/total-TC), median” value worked out at 0.09 fraction; the “Holo-TC, median” value came to 80 pmol/L. In data set [4] (setting [8]), the “Minimum increase for TC saturation (day 1-day 0)” value was determined as 0.02 and the “Minimum increase for holo-TC (day 1-day 0)” value came out at 15 pmol/L. In addition, in data set [4] (setting [9]), the “Increase of TC saturation, median value” is listed as “around 50%” and the “Increase of holo TC, median value” is reported as “around 50%”. In data set [4] (setting [10]), the “Absolute increase in serum vitamin B12, median (range)” value is given as 36 (−27-290) pmol/L; the “Percentage increase in serum vitamin B12, median (range)” value was 14 (−8-+51) % and 14%. In addition, in data set [4] (setting [11]), the “Maximal absolute increase in TC saturation, median (range)” value was 0.04 (0-0.23) fraction; the “Maximal absolute increase in holo-TC, median (range)” value is on record as 34 (0-149) pmol/L; the “Maximal percentage increase in TC saturation, median (range)” value was 52 (−2-+128) %; the “Maximal percentage increase in holo-TC, median (range)” value is recorded as 39 (0-+108) %.
